Test results: BindingDB's records for doi:10.7270/Q2D798W4 (Burnham Center For Chemical Genomics, 2010)

Target: T1, Alkaline phosphatase, tissue-nonspecific isozyme (Homo sapiens, UniProt P05186)
T1 sequence (P05186 whole entry): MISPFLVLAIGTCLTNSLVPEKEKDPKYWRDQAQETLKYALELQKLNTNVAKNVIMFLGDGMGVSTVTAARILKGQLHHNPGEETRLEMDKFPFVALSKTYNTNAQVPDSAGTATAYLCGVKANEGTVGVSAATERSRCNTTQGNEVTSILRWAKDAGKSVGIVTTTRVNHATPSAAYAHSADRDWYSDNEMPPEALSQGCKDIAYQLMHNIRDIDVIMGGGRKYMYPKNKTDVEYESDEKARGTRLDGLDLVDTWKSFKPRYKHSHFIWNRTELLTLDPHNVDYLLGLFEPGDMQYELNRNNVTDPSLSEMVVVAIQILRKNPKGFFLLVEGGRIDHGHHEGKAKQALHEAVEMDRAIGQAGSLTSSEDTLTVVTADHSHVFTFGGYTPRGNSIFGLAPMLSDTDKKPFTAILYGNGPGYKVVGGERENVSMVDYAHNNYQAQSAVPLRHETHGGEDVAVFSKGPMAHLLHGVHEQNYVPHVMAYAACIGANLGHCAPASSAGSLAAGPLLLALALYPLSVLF
Test: inhibition of tissue-nonspecific alkaline phosphatase – biochemical, dose response (AID 488882)

SMILES	IC50
Cc1c(C(=O)NN=Cc2ccc(O)cc2O)[nH][nH]c1=O	7.32 µM
CC(N=Nc1ccccc1[N+](=O)[O-])c1ccc([N+](=O)[O-])cc1 (stereo unspecified)	> 100 µM
CCOC1=CC(=Cc2c(C)[nH]oc2=O)C=C(Br)C1=O [4-[(Z)-(3-bromo-5-ethoxy-4-oxo-1-cyclohexa-2,5-dienylidene)methyl]-3-methyl-2H-isoxazol-5-one]	38.1 µM
C=c1[nH]n(Cc2ccccc2)c(=O)c1=Cc1ccc(N(C)C)cc1 [(4Z)-4-[[4-(dimethylamino)phenyl]methylidene]-5-methyl-2-(phenylmethyl)-3-pyrazolone]	46.7 µM
O=C(Nn1c(O)csc1=S)C(=O)Nn1c(O)csc1=S [SMR000349781]	12.8 µM
O=C(O)[C@H]1O[C@@H](Oc2c(-c3ccc(O)c(O)c3)oc3cc(O)cc(=O)c-3c2O)[C@H](O)[C@@H](O)[C@@H]1O [quercetin glucuronide]	> 100 µM
